Test results published in publication PMC9953468, “In Silico, In Vitro, and Ex Vivo Biological Activity of Some Novel Mebeverine Precursors” (Biomedicines, 2023).
Entries after “also recorded” stand apart in the source; their conditions may differ. Where two headings read alike, the source gives them in different places.

Experiments:
[1] = MTT cell viability assay; type: cell-based, human; details: human, ± SD, read-out: In vitro cytotoxicity (IC50)
Procedure: In order to evaluate the in vitro biocompatibility of the experimental compounds, a series of cell viability assays were performed against human malignant leukemic cell lines (LAMA-84, K-562) as well as normal murine fibroblast cells (CCL-1). All cell lines were purchased from the German Collection of Microorganisms and Cell Cultures (DSMZ GmbH, Braunschweig, Germany). Cell cultures were cultivated in a growth medium RPMI 1640 supplemented with 10% fetal bovine serum (FBS), 5% L-glutamine, and incubated under standard conditions of 37 °C and 5% humidified CO2 atmosphere.
The experimental design involved a number of cytotoxicity assays that measured cell growth inhibition by the newly synthesized compounds. Cell viability was evaluated using a standard MTT-based colorimetric assay. Exponential-phased cells were harvested and seeded (100 μL/well) in 96-well plates at the appropriate density (3 × 10^5) for the suspension cultures (LAMA-84 and K-562) and 1.5 × 10^5 for the adherent one (CCL-1). Cells were treated and incubated with various concentrations of the experimental compounds in the concentration range of 400-6.25 µM. After exposure time of 72 h, a filter-sterilized MTT substrate solution (5 mg/mL in PBS) was added to each well of the culture plate. A further 1–4 h incubation allowed for the formation of purple insoluble formazan precipitates. The latter were dissolved in isopropyl alcohol solution containing 5% formic acid prior to absorbance measurement at 550 nm using a microplate reader (Labexim LMR-1). Collected absorbance values were blanked against MTT and isopropanol solution and normalized to the mean value of the untreated control (100% cell viability). Semi-logarithmic “dose–response” curves were constructed and the half-inhibitory concentrations of the screened compounds against each tested cell line were calculated. Values of p ≤ 0.05 were considered statistically significant.

[2] = system: 5-HT3 receptor; assay: Immunohistochemical analysis of 5-HT3 expression in gastric SM strips; set-up: species or system Wistar rats; key to 5-HT3 expression, 5-HT / 5-HT3 expression, Response to Compound: −: absent; +: low; ++: moderate; +++: strong; details: for 5-HT3 expression, Response to Compound: SM preparations incubated with the compound; for 5-HT3 expression in SM preparations: immunohistochemical staining after 1 h incubation, in words
Procedure: […] Then, each SM strip was fixed in 10% neutral buffer formalin for 24–48 h and submitted for standard processing with hematoxylin and eosin staining.
The SM fragments from a rat’s gastric wall were fixed in a 10% neutral formalin solution and embedded in paraffin. Paraffin sections of 5 μm thickness were subjected to hematoxylin and eosin (H-E) staining for histochemical analysis.
Sections of the SM fragments from the wall of a rat’s stomach with a thickness of 5 µm were deparaffinized, then subjected to antigenic detection of the epitopes with citrate buffer, and an endogenous peroxidase blockade was made with hydrogen […] 3%, a kit was used to block the endogenous biotin, and a reagent was used to block non-specific binding (Superblock, Scy Tek, Santa Cruz Biotech. Inc. Heidelberg, Germany) follows incubate for 24 h (at 4 °C) with monoclonal mouse anti-5-HT3, next incubated with a secondary antibody: biotinylated anti-rabbit for 10 min at room temperature. The reaction was visualized with 3,3′-diaminobenzidine tetrachloride and counterstained with Mayer’s hematoxylin.
A quantitative and statistical analysis of immunohistochemical reaction using the Olympus DP-Soft image system (version 4.1 for Windows) was carried out on a Microphot-SA (Nikon, Japan) microscope equipped with a Camedia-5050 Z digital camera (Olympus, Japan). The analysis was performed on sections from the SM strips from the stomach of Wistar rats (n = 6 for each group). Five sections of the SM strips were measured, and the percentage of cells expressing 5-HT3 in the circular and longitudinal layer of SM cells, as well as in the myenteric plexus of the stomach, was determined. Each antibody was analyzed for five fields, in each of them the average number of cells with positive unit area response at ×200 magnification.

[3] = system: Eighteen tested microorganisms (Gram-positive bacteria, Gram-negative bacteria, yeasts, fungi); assay: Antimicrobial activity, agar well diffusion method, whole panel; type: cell-based; details: whole panel of tested microorganisms, in words
Text: Eighteen tested microorganisms including five Gram-positive bacteria (Bacillus subtilis ATCC 6633, Bacillus amyloliquefaciens 4BCL-YT, Staphylococcus aureus ATCC 25923, Listeria monocytogenes NBIMCC 8632, Enterococcus faecalis ATCC 19433), five Gram-negative bacteria (Salmonella enteritidis ATCC 13076, Klebsiella sp.—clinical isolate, Escherichia coli ATCC 25922, Proteus vulgaris ATCC 6380, Pseudomonas aeruginosa ATCC 9027), two yeasts (Candida albicans NBIMCC 74, Saccharomyces cerevisiae ATCC 9763) and six fungi (Aspergillus niger ATCC 1015, Aspergillus flavus, Penicillium sp., Rhizopus sp., Mucor sp.—plant isolates, Fusarium moniliforme ATCC 38932) from the collection of the Department of Microbiology at the University of Food Technologies—Plovdiv, Bulgaria, were selected for the antimicrobial activity test.
The antimicrobial activity of the samples was determined by the agar well diffusion method. The tested bacteria B. subtilis and B. amyloliquefaciens were cultured on LBG agar at 30 °C. The test bacteria S. aureus, L. monocytogenes, E. faecalis, S. enteritidis, Klebsiella sp., E. coli, P. vulgaris and P. aeruginosa were cultured on LBG agar at 37 °C for 24 h. The yeast C. albicans was cultured on MEA at 37 °C, while S. cerevisiae was cultured on MEA at 30 °C for 24 h. The fungi A. niger, A. flavus, Penicillium sp., Rhizopus sp., Mucor sp., and F. moniliforme were grown on MEA at 30 °C for 7 days or until sporulation.
The inocula of the tested bacteria/yeasts were prepared by homogenization of a small amount of biomass in 5 mL of sterile 0.5% NaCl. […] The number of viable cells and fungal spores was determined using a bacterial counting chamber Thoma (Poly-Optik, GmbH, Bad Blankenburg, Germany). […] Next, the inoculated media were transferred in a quantity of 18 mL in sterile Petri plates (d = 90 mm) (Gosselin™, Hazebrouck, France) and allowed to harden. […]
The antimicrobial activity was determined by measuring the diameter of the inhibition zones around the wells on the 24th and 48th h of incubation. […]

[4] = LAMA-84, CML in blast crisis (bcr-abl+)

Question: Which results are given for `CC(=O)NC(Cc1ccccc1)C(C)C` (stereo not shown) [Compound 4a, N-(3-methyl-1-phenylbutan-2-yl)acetamide]?
Answer: IC50 at 72 h ([1]; K-562 cells (blast phase chronic myeloid leukemia), K-562, Blast phase CML (bcr-abl+)): 276 ± 19.7 µM; IC50 at 72 h [1, 4]: 360 ± 11 µM; 5-HT3 expression, Response to Compound [2]: −; 5-HT3 expression in SM preparations [2]: no modulation on the 5-HT3R expression; also recorded: no 5-HT3 expression observed; antimicrobial activity [3]: inhibited only the growth of Escherichia coli

Question: For `CC(C)C(N)Cc1ccccc1` (stereo not shown) [Compound 3, 3-Methyl-1-phenylbutan-2-amine], which IC50 at 72 h ([1]; K-562, Blast phase CML (bcr-abl+)) is on record?
Answer: The IC50 at 72 h was 250 ± 10.5 µM.

Question: And the IC50 at 72 h [1, 4]?
Answer: Its IC50 at 72 h is 239 ± 18.2 µM.

Question: And the “5-HT3 expression, Response to Compound” value [2]?
Answer: Its value is “+++”.

Question: And the “5-HT3 expression in SM preparations” value [2]?
Answer: Its value is “higher number of 5-HT3R positive cells per section; also recorded: increased intensity in 5-HT3 expression”.

Question: What about the antimicrobial activity [3] of the same compound?
Answer: Its antimicrobial activity is “only modest activity against Gram-negative bacteria”.
